The values that follow come from the NIST ThermoML archive (doi:10.1021/je8006309).

Numbers after ± are expanded uncertainties.

Series [1] in a line: Molar enthalpy of transition or fusion. The following applies: Crystal; DSC.
The conditions of series [2]: for Normal melting temperature: Crystal.

With `CCCC[n+]1ccc(C)cc1.Cc1ccc(S(=O)(=O)[O-])cc1` [N-butyl-4-methylpyridinium tosylate], in series [1], the “Molar enthalpy of transition or fusion” value stood at 3.42 ± 0.0908 kcal/mol. Moreover, the Normal melting temperature in series [2] (DTA) stood at 51.71 ± 0.39 °C. Besides, the Glass transition temperature in series [2] (Glass, DTA) was -57.3 ± 3 °C.
In the case of `c1ccccc1` [benzene], in series [2] (DTA), the Normal melting temperature turned out to be 5.14 ± 0.39 °C.
As for `CCCCCCCCCCO` [decan-1-ol], the Normal melting temperature in series [2] worked out at 7.36 ± 0.93 °C.
As for `CCCCCCCCO` [octan-1-ol], the Normal melting temperature in series [2] is -14.00 ± 0.93 °C.
On the same count and under the same terms, the result for `O` [water] reads 0.00 ± 0.93 °C.
